{
  "source": "patent US20240209014A1",
  "about": "“NOVEL SPINOSYN PRODRUGS” (Acies Bio d.o.o., priority 2021, published 2024)",
  "key": {"[1]": {"assay": "Stability of J1A, J1B and J7 at different pH values (LC-MS)", "type": "physicochemical", "experimental": "Stability of compounds J1A, J1B and J7 was evaluated at different pH values. Differential stability/conversion to the active ingredient is expected to result in condition-specific activation and thereby to higher specificity towards target pests.\nStock solutions of the compounds were prepared at concentration of 0.1 mol/L. 10 μL of the stock solutions were transferred to 0.75 ml of the buffer solutions with pH values of 4, 5, 9 and 11. The resulting solutions were incubated for 10 minutes and 3 and 24 h. After specified times samples were analyzed using LC-MS. The compounds J1A, J1B, J7 and the active compound butenyl spinosyn were quantified. It is seen that the three compounds are converted to the active form preferably in alkaline conditions."}, "[2]": {"tested_on": "larvae of Ostrinia nubilialis (development stage L1)", "assay": "Insecticide efficacy, corn leaf dip, Henderson-Tilton method", "type": "in vivo", "settings": "for % efficacy (Henderson-Tilton): Ostrinia, foliar", "experimental": "Insecticide activities of the compounds of this invention were assessed in comparison with commercially available samples of spinosad (LGC (Dr. Ehrenstorfer); Product code: DRE-C16972830) and spinetoram (LGC (Dr. Ehrenstorfer); Product code: DRE-C16972770). Solutions of spinosyn compounds were prepared by adding 0.05% Tween 80, lowering pH to 5.95 and sonicating. Two concentrations of each compound were used, 0.1 μg/ml and 0.3 μg/mL, with each condition tested in four parallels.\nFreshly collected corn leaves were dipped into the prepared solutions. After dipping leaves were left to dry at room temperature for 1 hour. Each dry leaf was then infested with 4 larvae of Ostrinia nubilialis (development stage L1), and the experimental device was incubated at 21° C.-23° C. for 24 h in order to optimize insect development. At three timings post infestation (1 day, 3 days and 6 days), the insecticide efficacy is evaluated from the number of living larvae using the Henderson-Tilton method. Untreated control was integrated for normalization and validation of larvae health."}, "[3]": {"tested_on": "honey bees (Apis melifera carnica, Pollman 1879)", "assay": "Single dose acute oral toxicity test on adult worker honey bees", "type": "in vivo", "experimental": "Toxicity of the compounds of this invention towards honey bees (Apis melifera carnica, Pollman 1879) was assessed in comparison with commercially available samples of spinosad (LGC (Dr. Ehrenstorfer); Product code: DRE-C16972830) and the naturally produced compound butenyl spinosyn alpha 1. Solutions of spinosyn compounds were prepared in 100 mM ammonium acetate, pH=5, and later diluted in 50% (500 g/L) sucrose solution in water to final concentrations. Two final concentrations were used for each compound, 7.76 μmol/L and 15.53 μmol/L.\nSingle dose acute oral toxicity tests were conducted on adult worker bees according to previously described standard methods (Medrzycki at el., (2013)). Each compound and condition were tested in two parallels. Briefly, each parallel experiment consisted of 5 cages with 20 honey bees per cage. […] After uptake of the solutions honey bees were supplied with standard 50% sucrose solution and observed at 24 h and 48 h and the number of dead and live bees was estimated.\nAmmonium acetate solution with pH 5 was used as the negative control."}, "Kinetic solubility assay": {"assay": "Kinetic solubility assay", "type": "physicochemical", "settings": "25 °C, kinetic from dmso stock, dose conc 200 μM, 25±2° C.", "experimental": "Solubility of the compounds of the invention was assessed using kinetic solubility assay and compared to solubility of butenyl spinosyn. Stock solutions of spinosyn compounds were prepared in DMSO at mM concentration). 10 uL of the stock solutions were added into 490 of in K.S. 5.4 buffer of pH 5.4 (80 mM phosphoric acid, acetic acid, boric acid buffer, adjusted the pH to pH 5.4 with 1 N HCl and 1N NaOH) or K.S. 7.4 buffer with pH of 7.4 (80 mM phosphoric acid, acetic acid, boric acid buffer, adjusted the pH to pH 7.4 with 1 N HCl and 1N NaOH). The solutions were incubated with shaking at room […] temperature (25±2° C.) for 24 hours. 200 uL of each solution were then transferred into a new MultiScreen filter plate (Membrane of polycarbonate) and filtered by millipore vacuum manifold, and the filtrate was collected. The concentrtions of tested compounds in the filtered samples were analyzed by HPLC analysis calibrated by a standard curve generated by injection of 3 standard solutions of the relevant compound with concentrations of 1, 20, 200 μM."}},
  "note": "Read-outs that look alike come from different tables or passages of the source.",
  "data": [
    {"smiles": "CC/C=C/[C@H]1CCC[C@H](OC2CCC([N+](C)(C)COC(=O)OC(C)C)C(C)O2)[C@@H](C)C(=O)C2=C[C@@H]3[C@@H](C=C[C@@H]4C[C@@H](OC5OC(C)C(OC)C(OC)C5OC)C[C@@H]34)[C@@H]2CC(=O)O1", "note": "(stereo partly shown) [Compound J7]", "values": [
      {"measurement": "BuSPN Area % (active butenyl spinosyn released)", "setting": "[1]; buffer pH 4, 0.16 h", "value": 0.0, "unit": "%"},
      {"measurement": "Compound (J1A/J1B/J7) Area % remaining", "setting": "[1]; buffer pH 4, 0.16 h", "value": 19.2, "unit": "%"},
      {"measurement": "BuSPN Area % (active butenyl spinosyn released)", "setting": "[1]; buffer pH 4, 3 h", "value": 0.0, "unit": "%"},
      {"measurement": "Compound (J1A/J1B/J7) Area % remaining", "setting": "[1]; buffer pH 4, 3 h", "value": 4.1, "unit": "%"},
      {"measurement": "BuSPN Area % (active butenyl spinosyn released)", "setting": "[1]; buffer pH 4, 24 h", "value": 0.0, "unit": "%"},
      {"measurement": "Compound (J1A/J1B/J7) Area % remaining", "setting": "[1]; buffer pH 4, 24 h", "value": 3.8, "unit": "%"},
      {"measurement": "BuSPN Area % (active butenyl spinosyn released)", "setting": "[1]; buffer pH 5, 0.16 h", "value": 0.2, "unit": "%"},
      {"measurement": "Compound (J1A/J1B/J7) Area % remaining", "setting": "[1]; buffer pH 5, 0.16 h", "value": 99.2, "unit": "%"},
      {"measurement": "BuSPN Area % (active butenyl spinosyn released)", "setting": "[1]; buffer pH 5, 3 h", "value": 0.3, "unit": "%"},
      {"measurement": "Compound (J1A/J1B/J7) Area % remaining", "setting": "[1]; buffer pH 5, 3 h", "value": 99.7, "unit": "%"},
      {"measurement": "BuSPN Area % (active butenyl spinosyn released)", "setting": "[1]; buffer pH 5, 24 h", "value": 0.5, "unit": "%"},
      {"measurement": "Compound (J1A/J1B/J7) Area % remaining", "setting": "[1]; buffer pH 5, 24 h", "value": 99.2, "unit": "%"},
      {"measurement": "BuSPN Area % (active butenyl spinosyn released)", "setting": "[1]; buffer pH 9, 0.16 h", "value": 44.4, "unit": "%"},
      {"measurement": "Compound (J1A/J1B/J7) Area % remaining", "setting": "[1]; buffer pH 9, 0.16 h", "value": 54.2, "unit": "%"},
      {"measurement": "BuSPN Area % (active butenyl spinosyn released)", "setting": "[1]; buffer pH 9, 3 h", "value": 90.8, "unit": "%"},
      {"measurement": "Compound (J1A/J1B/J7) Area % remaining", "setting": "[1]; buffer pH 9, 3 h", "value": 7.6, "unit": "%"},
      {"measurement": "BuSPN Area % (active butenyl spinosyn released)", "setting": "[1]; buffer pH 9, 24 h", "value": 93.8, "unit": "%"},
      {"measurement": "Compound (J1A/J1B/J7) Area % remaining", "setting": "[1]; buffer pH 9, 24 h", "value": 0.6, "unit": "%"},
      {"measurement": "BuSPN Area % (active butenyl spinosyn released)", "setting": "[1]; buffer pH 11, 0.16 h", "value": 93.1, "unit": "%"},
      {"measurement": "Compound (J1A/J1B/J7) Area % remaining", "setting": "[1]; buffer pH 11, 0.16 h", "value": 6.7, "unit": "%"},
      {"measurement": "BuSPN Area % (active butenyl spinosyn released)", "setting": "[1]; buffer pH 11, 3 h", "value": 99.8, "unit": "%"},
      {"measurement": "Compound (J1A/J1B/J7) Area % remaining", "setting": "[1]; buffer pH 11, 3 h", "value": 0.0, "unit": "%"},
      {"measurement": "BuSPN Area % (active butenyl spinosyn released)", "setting": "[1]; buffer pH 11, 24 h", "value": 99.4, "unit": "%"},
      {"measurement": "Compound (J1A/J1B/J7) Area % remaining", "setting": "[1]; buffer pH 11, 24 h", "value": 0.0, "unit": "%"},
      {"measurement": "insecticidal activity on Ostrinia nubilialis larvae (in words)", "setting": "[2]; 0.1 and 0.3 μg/mL, leaf dip", "value": "extremely potent insecticidal activity"},
      {"measurement": "% efficacy (Henderson-Tilton)", "setting": "[2]; 24 h, read-out: % Efficacy, dose 0.1 μg a.i./ml, 1 day post infestation", "value": 31, "unit": "%"},
      {"measurement": "% efficacy (Henderson-Tilton)", "setting": "[2]; 24 h, read-out: % Efficacy, dose 0.3 μg a.i./ml, 1 day post infestation", "value": 44, "unit": "%"},
      {"measurement": "% efficacy (Henderson-Tilton)", "setting": "[2]; 72 h, read-out: % Efficacy, dose 0.1 μg a.i./ml, 3 days post infestation", "value": 73, "unit": "%"},
      {"measurement": "% efficacy (Henderson-Tilton)", "setting": "[2]; 72 h, read-out: % Efficacy, dose 0.3 μg a.i./ml, 3 days post infestation", "value": 91, "unit": "%"},
      {"measurement": "% efficacy (Henderson-Tilton)", "setting": "[2]; 144 h, read-out: % Efficacy, dose 0.1 μg a.i./ml, 6 days post infestation", "value": 91, "unit": "%"},
      {"measurement": "% efficacy (Henderson-Tilton)", "setting": "[2]; 144 h, read-out: % Efficacy, dose 0.3 μg a.i./ml, 6 days post infestation", "value": 100, "unit": "%"},
      {"measurement": "% of surviving honey bees", "setting": "[3]; single oral dose 0.078 nmol/bee, 24 h after application", "value": 96, "unit": "%"},
      {"measurement": "% of surviving honey bees", "setting": "[3]; single oral dose 0.078 nmol/bee, 48 h after application", "value": 94, "unit": "%"},
      {"measurement": "% of surviving honey bees", "setting": "[3]; single oral dose 0.155 nmol/bee, 24 h after application", "value": 85, "unit": "%"},
      {"measurement": "% of surviving honey bees", "setting": "[3]; single oral dose 0.155 nmol/bee, 48 h after application", "value": 63, "unit": "%"},
      {"measurement": "solubility kinetic at 24 h", "setting": "Kinetic solubility assay; pH 5.4, aqueous buffer, K.S. 5.4 buffer, read-out: Kinetic Solubility pH = 5.4", "value": 192, "unit": "µM"},
      {"measurement": "solubility kinetic at 24 h", "setting": "Kinetic solubility assay; pH 7.4, aqueous buffer, K.S. 7.4 buffer, read-out: Kinetic Solubility pH = 7.4", "value": 145, "unit": "µM"}
    ]}
  ]
}
